Results taken from PMC9911797, “Novel TLR7/8 agonists promote activation of HIV-1 latent reservoirs and human T and NK cells” (Frontiers in Microbiology, 2023).

Legend:
PBMCs = test: Inflammatory cytokine release from PBMCs (Legend-plex); assay type: cell-based, human; conditions: PBMC culture supernatant 48 h after stimulation
Protocol: Then, a total of 13 human inflammatory cytokines and chemokines (IL-1β, IFN-α2, IFN-γ, TNF-α, CCL2, IL-6, CXCL8, IL-10, IL-12p70, IL-17A, IL-18, IL-23, and IL-33) were measured in the culture supernatant 48 h after stimulation and compared with two healthy donors. Only 8 out of 13 became detectable and largely fell into the proinflammatory cytokines (IL-1β, IL-6, IL-18, IL-23, and TNF-α), Th1-and Th2-type cytokines (IL-10 and IFN-γ), and type I (IFN-α2) and type II (IFN-γ) interferons (Figures 2B–I).
The supernatants from PBMCs culture were collected and stored at-20°C until analysis. For the Multi-cytokines assay, the Legend-plex Human Inflammation Panel 1 kit (Biolegend) was used according to the manual. Thirteen human inflammatory cytokines/chemokines were measured, including IL-1β, IFN-α2, IFN-γ, TNF-α, MCP-1 (CCL2), IL-6, IL-8 (CXCL8), IL-10, IL-12p70, IL-17A, IL-18, IL-23, and IL-33.

[1] = tested on: J-LAT cells co-cultured with MDDCs; test: J-LAT and MDDC co-culture assay (GFP+ cells and TNF-α); conditions: 1 μM, 48 h
hTLR8 = molecular target: T1, hTLR8 (Homo sapiens, UniProt Q9NR97); test: HEK-Blue hTLR8 SEAP reporter assay; assay type: cell-based; conditions: HEK-Blue hTLR8 cells, SEAP in supernatant
T1 construct: host or cells: HEK-Blue hTLR8 (HEK293-derived)
T1 sequence (Q9NR97 27-1041): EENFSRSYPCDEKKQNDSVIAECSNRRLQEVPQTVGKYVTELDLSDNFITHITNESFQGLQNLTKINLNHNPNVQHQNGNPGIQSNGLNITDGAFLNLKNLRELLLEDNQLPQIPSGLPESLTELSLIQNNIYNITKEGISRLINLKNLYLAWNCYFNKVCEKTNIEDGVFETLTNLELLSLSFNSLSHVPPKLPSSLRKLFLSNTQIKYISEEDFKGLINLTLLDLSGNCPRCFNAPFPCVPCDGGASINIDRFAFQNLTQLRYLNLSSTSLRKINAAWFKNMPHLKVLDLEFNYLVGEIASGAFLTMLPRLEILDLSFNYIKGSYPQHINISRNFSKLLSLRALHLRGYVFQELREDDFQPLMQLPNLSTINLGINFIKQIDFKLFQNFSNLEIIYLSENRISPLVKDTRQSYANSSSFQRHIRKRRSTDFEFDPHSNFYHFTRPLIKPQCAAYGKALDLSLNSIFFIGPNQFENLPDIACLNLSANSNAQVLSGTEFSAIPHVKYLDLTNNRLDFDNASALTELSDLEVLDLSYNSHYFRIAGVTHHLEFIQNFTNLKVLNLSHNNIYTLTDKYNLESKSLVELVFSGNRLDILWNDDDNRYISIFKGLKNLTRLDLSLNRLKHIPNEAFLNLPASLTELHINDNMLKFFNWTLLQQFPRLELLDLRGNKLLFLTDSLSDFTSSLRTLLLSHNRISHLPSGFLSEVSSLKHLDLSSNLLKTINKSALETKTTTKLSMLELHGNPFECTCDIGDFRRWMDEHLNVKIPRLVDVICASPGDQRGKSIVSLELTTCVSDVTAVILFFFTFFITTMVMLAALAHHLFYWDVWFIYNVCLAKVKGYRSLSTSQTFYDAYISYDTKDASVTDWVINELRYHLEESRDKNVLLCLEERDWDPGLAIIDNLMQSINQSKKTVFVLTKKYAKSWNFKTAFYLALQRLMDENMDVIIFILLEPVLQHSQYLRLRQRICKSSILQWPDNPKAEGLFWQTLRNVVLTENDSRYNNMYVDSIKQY
Protocol: Starting with the lead compound, 76 pyrido [3,2-d] pyrimidine derivatives were synthesized and optimized through structural modification from the deep hydrophobic region to the solvent-exposed region. Seventy-six compounds were evaluated for their in vitro activity using HEK-Blue hTLR7 or hTLR8 reporter cells, stably expressing the human TLR7 or TLR8 and an NF-κB/AP1-inducible SEAP (secreted embryonic alkaline phosphatase reporter gene).
Add 20 μl various concentrations of TLR agonists (10 dilutions) and in a 96-well plate. Then HEK-Blue hTLR7 and hTLR8 cells were suspended to 4 × 10^5 cells/ml in HEK-Blue Detection (InvivoGen) medium and added 180 μl per well. The plates were incubated at 37°C in 5% CO2 for 12 ~ 16 h. Stimulation with a hTLR7or hTLR8 ligand activates NF-κB to induce the production of secreted embryonic alkaline phosphatase (SEAP) in the culture supernatant. SEAP could be measured at OD630nm on an ELISA plate reader.

Compound: CCCCNc1nc(N)nc2ccc(Cc3ccc(CN(C)C)cc3)nc12 [D018]
- release of inflammatory cytokines (PBMCs): either equivalent (IL-6, IL-10, IL-23, and IFN-γ) or higher (IL-1β, IL-18, and TNF-α) than the commercially available R848
- GFP+ J-LAT cells and soluble TNF-α in MDDC co-culture [1]: marked increase
- EC50 (hTLR8): 6.46 nM
